In US20250197372A1 (priority 2020, published 2025):
pIC50: −log10 of the molar value.

Tests used:
Assay type in all cases: biochemical
[1] = target: T1, recombinant alpha-glucosidase II (murine full-length glucosidase II, alpha and beta subunits, Glu 2) (Mus musculus, UniProt Q8BHN3); experiment: Alpha-glucosidase II assay (4-methylumbelliferyl-alpha-D-pyranoside substrate, fluorescence); settings: Glucosidase 2; read-out: Glu2 IC50
T1 construct: made in house; host or cells: HEK-293T cells transduced with BacMam viruses (75% alpha, 25% beta); protein harvested from culture supernatant

[2] = target: recombinant human GAA (acid alpha-glucosidase) (Homo sapiens, UniProt P10253); experiment: Acid alpha-glucosidase (GAA) assay (4-methylumbelliferyl-alpha-D-pyranoside substrate, fluorescence)
Procedure, shortened: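 IC50 from 4-PL curve fit of percent inhibition, based on fluorescence (365/440 nm) of released methylumbelliferone relative to uninhibited enzyme. Compound dilutions and human GAA incubated 60 min, 37 °C, before 20 min substrate reaction at 37 °C, quenched at pH 10.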

[3] = target: T2, recombinant human GBA (beta-glucocerebrosidase) (Homo sapiens, UniProt P04062); experiment: Beta-glucocerebrosidase (GBA, glucosylceramidase) assay (4-methylumbelliferyl-beta-D-pyranoside substrate, fluorescence)
T2 sequence (P04062 40-536): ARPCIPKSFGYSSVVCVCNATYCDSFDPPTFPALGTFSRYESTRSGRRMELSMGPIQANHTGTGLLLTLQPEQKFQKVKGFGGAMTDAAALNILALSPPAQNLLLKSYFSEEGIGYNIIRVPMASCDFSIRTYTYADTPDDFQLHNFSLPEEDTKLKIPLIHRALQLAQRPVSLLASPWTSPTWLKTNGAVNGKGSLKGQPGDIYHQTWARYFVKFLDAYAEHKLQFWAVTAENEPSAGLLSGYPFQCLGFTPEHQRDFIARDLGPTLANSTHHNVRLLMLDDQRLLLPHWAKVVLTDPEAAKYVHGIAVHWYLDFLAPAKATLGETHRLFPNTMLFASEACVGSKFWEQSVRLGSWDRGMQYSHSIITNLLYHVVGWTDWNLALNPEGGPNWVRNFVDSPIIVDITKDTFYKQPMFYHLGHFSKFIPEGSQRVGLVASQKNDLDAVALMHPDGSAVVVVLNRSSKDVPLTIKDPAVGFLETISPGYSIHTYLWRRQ
Procedure, shortened: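 IC50 by four-parameter fit of percent inhibition, with product fluorescence (365/440 nm) read after a glycine/NaOH pH 10 stop. Compound and commercial recombinant human enzyme were incubated 60 min at 37 °C before a further 60 min at 37 °C with 4-methylumbelliferyl-beta-D-pyranoside substrate.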

[4] = target: rat maltase (partially purified alpha-glucosidase from intestinal rat powder); experiment: Intestinal alpha-glucosidase assay, maltose substrate (Glucose GO Kit)
Procedure, shortened: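 Enzyme from intestinal rat powder, partially purified, is exposed to compound for 60 min at 37 °C. Disaccharide substrate (maltose or sucrose respectively) then reacts 30 min at 37 °C. Heat-stopped samples are assayed for glucose, and percent inhibition versus concentration gives IC50 via 4-PL.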

T1 sequence (O08795 15-521): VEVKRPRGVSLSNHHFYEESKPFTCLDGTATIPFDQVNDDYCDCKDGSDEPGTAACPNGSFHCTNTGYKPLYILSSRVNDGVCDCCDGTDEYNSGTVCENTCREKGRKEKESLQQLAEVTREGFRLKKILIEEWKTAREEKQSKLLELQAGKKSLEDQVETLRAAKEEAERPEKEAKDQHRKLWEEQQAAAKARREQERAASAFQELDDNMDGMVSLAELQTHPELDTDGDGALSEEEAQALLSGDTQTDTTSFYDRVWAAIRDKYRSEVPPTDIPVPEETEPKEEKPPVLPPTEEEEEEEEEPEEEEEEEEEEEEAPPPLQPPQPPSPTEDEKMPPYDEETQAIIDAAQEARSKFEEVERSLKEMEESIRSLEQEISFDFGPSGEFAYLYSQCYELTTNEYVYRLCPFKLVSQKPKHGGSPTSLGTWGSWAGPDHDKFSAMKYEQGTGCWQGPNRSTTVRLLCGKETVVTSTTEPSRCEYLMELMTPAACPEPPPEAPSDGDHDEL
T1 sequence (Q8BHN3 33-944): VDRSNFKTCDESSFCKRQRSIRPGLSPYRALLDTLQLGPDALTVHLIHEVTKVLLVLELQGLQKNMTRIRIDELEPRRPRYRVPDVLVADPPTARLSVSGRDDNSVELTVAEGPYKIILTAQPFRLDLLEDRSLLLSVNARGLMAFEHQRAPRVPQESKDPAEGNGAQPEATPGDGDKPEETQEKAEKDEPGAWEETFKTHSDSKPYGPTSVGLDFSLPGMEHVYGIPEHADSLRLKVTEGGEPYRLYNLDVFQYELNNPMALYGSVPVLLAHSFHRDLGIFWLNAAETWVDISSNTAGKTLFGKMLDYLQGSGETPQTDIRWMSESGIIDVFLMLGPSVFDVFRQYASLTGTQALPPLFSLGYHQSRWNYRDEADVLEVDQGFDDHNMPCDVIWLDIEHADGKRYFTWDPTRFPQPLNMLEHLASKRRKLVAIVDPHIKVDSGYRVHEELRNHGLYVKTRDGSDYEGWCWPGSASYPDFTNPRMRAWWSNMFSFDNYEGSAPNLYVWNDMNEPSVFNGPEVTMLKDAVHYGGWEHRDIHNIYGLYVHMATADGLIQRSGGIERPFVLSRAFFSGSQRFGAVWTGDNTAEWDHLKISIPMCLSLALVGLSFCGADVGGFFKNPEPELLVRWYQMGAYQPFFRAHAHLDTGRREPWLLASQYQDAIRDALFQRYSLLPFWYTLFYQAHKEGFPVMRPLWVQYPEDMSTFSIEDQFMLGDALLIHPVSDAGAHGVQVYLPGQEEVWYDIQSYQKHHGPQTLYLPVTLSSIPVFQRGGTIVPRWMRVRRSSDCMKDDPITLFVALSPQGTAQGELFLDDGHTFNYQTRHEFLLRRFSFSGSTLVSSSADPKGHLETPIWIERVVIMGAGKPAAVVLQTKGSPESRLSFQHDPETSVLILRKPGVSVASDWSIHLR

Row | SMILES | pIC50 [1] | pIC50 [2] | pIC50 [3] | pIC50 [4]
1 | COc1cc(NCCCCCCN2C[C@H](O)[C@@H](O)[C@H](O)[C@H]2CO)cc(-c2ncc[nH]2)c1 [Compound 1219, (2R,3R,4R,5S)-2-(hydroxymethyl)-1-(6-{[3-(1H-imidazol-2-yl)-5-methoxyphenyl]amino}hexyl)piperidine-3,4,5-triol] | 7.74 | 7.05 | 5.06 | 8.00
2 | COCCCCCN(CCCNc1ccc(N=[N+]=[N-])cc1[N+](=O)[O-])CCCN1C[C@H](O)[C@@H](O)[C@H](O)[C@H]1CO [Compound 1221, (2R,3R,4R,5S)-1-[3-({3-[(4-azido-2-nitrophenyl)amino]propyl}(5-methoxypentyl)amino)propyl]-2-(hydroxymethyl)piperidine-3,4,5-triol] | 6.66 | 5.35 | 7.24 | 6.63
3 | NC(=O)CCN(CCNc1ccc(-c2ncccn2)cc1[N+](=O)[O-])CCN1C[C@H](O)[C@@H](O)[C@H](O)[C@H]1CO [Compound 1226, 3-[(2-{[2-nitro-4-(pyrimidin-2-yl)phenyl]amino}ethyl)({2-[(2R,3R,4R,5S)-3,4,5-trihydroxy-2-(hydroxymethyl)piperidin-1-yl]ethyl})amino]propanamide] | 5.87 | 4.68 | 5.49 | 5.33
4 | O=S(=O)(Nc1cc(-c2ncccn2)ccc1NCCCCCCN1C[C@H](O)[C@@H](O)[C@H](O)[C@H]1CO)C1CC1 [Compound 1227, N-[5-(pyrimidin-2-yl)-2-({6-[(2R,3R,4R,5S)-3,4,5-trihydroxy-2-(hydroxy-methyl)piperidin-1-yl]hexyl}amino)phenyl]cyclopropanesulfonamide] | 7.77 | 7.09 | 6.23 | 7.92
5 | OC[C@@H]1[C@@H](O)[C@H](O)[C@@H](O)CN1CCCCCCNc1ccc(-c2ncccn2)cc1Cl [Compound 1228, (2R,3R,4R,5S)-1-(6-{[2-chloro-4-(pyrimidin-2-yl)phenyl]amino}hexyl)-2-(hydroxymethyl)piperidine-3,4,5-triol] | 7.96 | 7.17 | 6.08 | 9.00
6 | OC[C@@H]1[C@@H](O)[C@H](O)[C@@H](O)CN1CCCCCCNc1ccc(-c2ncccn2)cc1F [Compound 1229, (2R,3R,4R,5S)-1-(6-{[2-fluoro-4-(pyrimidin-2-yl)phenyl]amino}hexyl)-2-(hydroxymethyl)piperidine-3,4,5-triol] | 7.43 | 7.09 | 6.02 | 7.62
7 | COc1cc(-c2ncccn2)ccc1NCCCCCCN1C[C@H](O)[C@@H](O)[C@H](O)[C@H]1CO [Compound 1231, (2R,3R,4R,5S)-2-(hydroxymethyl)-1-(6-{[2-methoxy-4-(pyrimidin-2-yl)phenyl]amino}hexyl)piperidine-3,4,5-triol] | 7.52 | 7.04 | 5.68 | 7.52
8 | Cc1cc(-c2ncccn2)ccc1NCCCCCCN1C[C@H](O)[C@@H](O)[C@H](O)[C@H]1CO [Compound 1233, (2R,3R,4R,5S)-2-(hydroxymethyl)-1-(6-{[2-methyl-4-(pyrimidin-2-yl)phenyl]amino}hexyl)piperidine-3,4,5-triol] | 7.64 | 5.99 | 5.88 | 7.49
9 | [N-]=[N+]=Nc1ccc(NCCN(CCC(N)=O)CCN2C[C@H](O)[C@@H](O)[C@H](O)[C@H]2CO)c([N+](=O)[O-])c1 [Compound 1235] | 6.28 | 4.42 | 4.94 | 5.15
10 | CN(C)Cc1ccc(NCCCCCCN2C[C@H](O)[C@@H](O)[C@H](O)[C@H]2CO)c(F)c1 [Compound 1236, (2R,3R,4R,5S)-1-[6-({4-[(dimethylamino)methyl]-2-fluorophenyl}amino)hexyl]-2-(hydroxymethyl)piperidine-3,4,5-triol] | 7.41 | 6.25 | 5.33 | 7.44
11 | Nc1ccc(NCCc2ccccc2CCN2C[C@H](O)[C@@H](O)[C@H](O)[C@H]2CO)c([N+](=O)[O-])c1Cl [Compound 1239, (2R,3R,4R,5S)-1-[2-(2-{2-[(4-amino-3-chloro-2-nitrophenyl)amino]ethyl}phenyl)ethyl]-2-(hydroxymethyl)piperidine-3,4,5-triol] | 6.97 | 5.91 | 6.94 | > 9.00
12 | [N-]=[N+]=Nc1ccc(NCCc2cccc(CCN3C[C@H](O)[C@@H](O)[C@H](O)[C@H]3CO)c2)c([N+](=O)[O-])c1 [Compound 1240, (2R,3R,4R,5S)-1-[2-(3-{2-[(4-azido-2-nitrophenyl)amino]ethyl}phenyl)ethyl]-2-(hydroxymethyl)piperidine-3,4,5-triol] | 7.35 | 4.89 | 6.30 | 6.15
13 | CN(C)Cc1ccc(NCCCCCCN2C[C@H](O)[C@@H](O)[C@H](O)[C@H]2CO)c(C(=O)O)c1 [Compound 1245, 5-[(dimethylamino)methyl]-2-({6-[(2R,3R,4R,5S)-3,4,5-trihydroxy-2-(hydroxymethyl)piperidin-1-yl]hexyl}amino)benzoic acid] | 7.29 | 6.41 | 4.25 | 7.49
14 | Cc1nc(=O)c2cc(-c3ncccn3)ccc2n1CCCCCCN1C[C@H](O)[C@@H](O)[C@H](O)[C@H]1CO [Compound 1246, 2-methyl-6-(pyrimidin-2-yl)-1-{6-[(2R,3R,4R,5S)-3,4,5-trihydroxy-2-(hydroxymethyl)piperidin-1-yl]hexyl}-1,4-dihydroquinazolin-4-one] | 8.40 | 7.34 | 4.67 | < 4.00
15 | CS(C)=NS(=O)(=O)c1cc(-c2ncccn2)ccc1NCCCCCCN1C[C@H](O)[C@@H](O)[C@H](O)[C@H]1CO [Compound 1247, N-(dimethyl-2-sulfanylidene)-5-(pyrimidin-2-yl)-2-({6-[(2R,3R,4R,5S)-3,4,5-trihydroxy-2-(hydroxymethyl)piperidin-1-yl]hexyl}amino)benzene-1-sulfonamide] | 8.22 | 7.28 | 4.93 | 7.74
16 | [N-]=[N+]=Nc1ccc(NCCc2ccccc2CCN2C[C@H](O)[C@@H](O)[C@H](O)[C@H]2CO)c([N+](=O)[O-])c1 [Compound 1249] | 6.79 | 5.72 | 6.49 | 5.46
17 | N#Cc1ccc(F)cc1NCCCCCCN1C[C@H](O)[C@@H](O)[C@H](O)[C@H]1CO [Compound 1251, 4-fluoro-2-({6-[(2R,3R,4R,5S)-3,4,5-trihydroxy-2-(hydroxymethyl)piperidin-1-yl]hexyl}amino)benzonitrile] | 7.92 | 7.39 | 5.85 | 8.40
18 | [N-]=[N+]=Nc1ccc(N2CC(OCCN3C[C@H](O)[C@@H](O)[C@H](O)[C@H]3CO)C2)c([N+](=O)[O-])c1 [Compound 1252, (2R,3R,4R,5S)-1-(2-{[1-(4-azido-2-nitrophenyl)azetidin-3-yl]oxy}ethyl)-2-(hydroxymethyl)piperidine-3,4,5-triol] | 7.09 | 6.85 | 5.06 | 7.43
